Values of other authors, collected in patent US20070020177A1, “Radiometal complex compositions” (priority 2003, published 2007).

For ^99mTc-TRODAT-1, the “stable at room temperature” value (Fan et al) is listed as 24 h and the “radiochemical purity reached by kit” value (minimum of 10 μg tropane conjugate in the kit, autoclave heating 30 minutes, Choi et al) is listed as “greater than 90%”.
